Square brackets hold non-standard residues; d marks the D form. Ends that are not written are not given here. Peptide text beside a SMILES is read from it. ξ: configuration not given here. ξNMeBmt = C/C=C/C[C@@H](C)[C@@H](O)C(NC)C(=O)O; NMeL = CN[C@@H](CC(C)C)C(=O)O; NMeV = CN[C@H](C(=O)O)C(C)C; Abu = CC[C@H](N)C(=O)O; Sar = CNCC(=O)O
Legend:
AtT20 cells [1] = test: CRF-induced cAMP accumulation in AtT20 cells; format: cell-based, mouse; settings: for CRF-induced cAMP formation: 1 μmol/l FK506, 10 nmol/l CRF, calcium-depleted cells; for cAMP response to CRF after lowering intracellular free Ca2+: EGTA 2 mmol/l, nimodipine 1 μmol/l, BAPTA-AM 20 μmol/l in preincubation, IBMX 0.5 mmol/l
Experimental: Experiments for cAMP were all carried out in Hanks balanced salt solution containing 2 mM CaCl2 and 1 mM MgSO4 buffered with 25 mM HEPES pH 7.4 and supplemented with 0.25% (w/v) of bovine serum albumin. The cells were preincubated in serum free medium for 1 hour, after which blockers of phosphosdiesterase (isobutylmethylxanthine 0.5 mM (IBMX) and/or rolipram 0.1 mM) along with various other treatments were applied for 30 minutes at 37° C. Subsequently the cells were cooled to 22° C. for 5 minutes in a water bath and agonists were added for 10 minutes. The reaction was stopped by the addition of 0.2 mol/l HCl to achieve a final concentration of 0.1 mol/l (Brooker et al, (1979) Adv. in Cyclic Nucl. Res. Vol. 10, G. Brooker, P. Greengard and G. A. Robinson, Raven Press, New York, 2-34).
In some experiments cells were preincubated for 30 minutes in medium containing 2 mmol/l EGTA and no added Ca^2+, supplemented with 5 μmol/l A23187 and 2.5 μmol/l nifedipine in order to deplete rapidly mobilized cellular stores of Ca^2+. […] The rationale for this pretreatment is that calcineurin reportedly influences L-channel activity (Lai et al, (1993) J. Neurochem. 61:1333-1339; and Armstrong et al, (1987) Proc. Natl. Acad. Sci. U.S.A. 84:2518-2522), whereas the treatment regimen used here would make Ca^2+ entry independent of this regulation.
These compounds were made up in ethanol at 10^−3 mol/l and diluted with the incubation medium to the desired final concentrations. In some cases cells were preincubated with L685,818 the structural analogue of FK506 that binds to FKBP-12 and inhibits prolyl-isomerase activity but is devoid of immunosuppressant activity (Dumont et al, (1992) J. Exp. Med. 176:751-760) for 10 minutes before the addition of FK506 for 30 minutes at 37° C.

AtT20 cells [2] = test: ACTH release by AtT20 cells; format: cell-based, mouse
[3] = tested on: T1, GST fusion protein of the FKBP12 like domain (residues 594-611) of mouse AC
T1 sequence: IDDSRESSGPRGQGTASP

AtT20 cells [4] = test: cAMP accumulation induced by β-adrenergic stimulation (isoproterenol) in AtT20 cells; format: cell-based, mouse
AtT20 cells [5] = test: forskolin-evoked cAMP accumulation in AtT20 cells; format: cell-based, mouse
Experimental: The cells were preincubated in serum free medium for 1 hour, after which blockers of phosphosdiesterase (isobutylmethylxanthine 0.5 mM (IBMX) and/or rolipram 0.1 mM) along with various other treatments were applied for 30 minutes at 37° C. Subsequently the cells were cooled to 22° C. for 5 minutes in a water bath and agonists were added for 10 minutes. […] Res. Vol. 10, G. Brooker, P. Greengard and G. A. Robinson, Raven Press, New York, 2-34).

[6] = tested on: HEK293 cells transfected with AC; test: cAMP in HEK293 cells transiently transfected with AC; format: cell-based, human; settings: FK506 2 μmol/l, L-685,818 100 μmol/l; 1 mmol/l IBMX, 0.1 mmol/l rolipram
[7] = isoproterenol 2 nmol/l, pretreatment FK506 1 μmol/l or BAPTA/AM 20 μmol/l, IBMX 0.5 mmol/l, rolipram 0.1 mmol/l
[8] = isoproterenol 10 nmol/l, pretreatment FK506 1 μmol/l or BAPTA/AM 20 μmol/l, IBMX 0.5 mmol/l, rolipram 0.1 mmol/l
[9] = isoproterenol 1000 nmol/l, pretreatment FK506 1 μmol/l or BAPTA/AM 20 μmol/l, IBMX 0.5 mmol/l, rolipram 0.1 mmol/l

Question: Which results are given for “CRF: hypothalamic neuropeptide corticotropin-releasing factor (SEEPPISLDLTFHLLREVLEMARAEQLAQQAHSNRKLMEII; ends and bridges not checked; UniProt P06850 154-194, looked up)”?
Answer: cAMP level in the presence of CRF (AtT20 cells [1]; 10 nmol/l CRF (FIG. 3A)): 12 pmol/well*10minutes; increment of cAMP caused by CRF (AtT20 cells [1]; 10 nmol/l CRF, 0.5 mmol/l isobutylmethylxanthine (FIG. 1)): 6.1 pmol/well; CRF-stimulated ACTH release (AtT20 cells [2]; FIG. 7A, value taken as 100%): 22±1 fmol/well*30 minutes

Question: Which “phosphorylation of the cyclase portion of the GST fusion protein” value [3] does the source give for cAMP dependent protein kinase here?
Answer: The value was “can be phosphorylated by cAMP dependent protein kinase”.

Question: With `CC(C)NCC(O)c1ccc(O)c(O)c1` (centres unmarked) [Isoproterenol] as the molecule, how does the cAMP accumulation (AtT20 cells [4]; isoproterenol 0.4 nmol/l, no pretreatment) read?
Answer: The cAMP accumulation was 0.7 ± 0.04.

Question: What about the cAMP accumulation (AtT20 cells [4]; isoproterenol 2 nmol/l, no pretreatment) of the same molecule?
Answer: Its cAMP accumulation is 2.0 ± 0.08.

Question: What about the cAMP accumulation (AtT20 cells [4]; isoproterenol 10 nmol/l, no pretreatment) of the same molecule?
Answer: Its cAMP accumulation is 9.5 ± 0.33.

Question: What about the cAMP accumulation (AtT20 cells [4]; isoproterenol 100 nmol/l, no pretreatment) of the same molecule?
Answer: The cAMP accumulation was 19.5 ± .5.

Question: What about the cAMP accumulation (AtT20 cells [4]; isoproterenol 1000 nmol/l, no pretreatment) of the same molecule?
Answer: The cAMP accumulation was 32.1 ± 0.5.

Question: Which “dephosphorylation of the cyclase portion of the GST fusion protein” value [3] does the source give for “calcineurin (protein phosphatase 2B), as used on the GST fusion protein” here?
Answer: Its value is “dephosphorylated in a calcium dependent manner by calcineurin”.

Question: Which results are given for pertussis toxin?
Answer: suppression of CRF-induced cAMP formation by extracellular Ca2+ (AtT20 cells [1]; Ca2+-depleted cells, pertussis toxin treatment): had no effect on the suppression of CRF-induced cAMP formation by extracelluar Ca^2+; inhibitory G-protein function (somatostatin-mediated inhibition of cAMP formation) (AtT20 cells [1]; pertussis toxin 1 μg/ml): strongly suppressed inhibitory G-protein function

Question: What does the source list for `C=CC[C@@H]1/C=C(\C)C[C@H](C)C[C@H](OC)[C@H]2O[C@@](O)(C(=O)C(=O)N3CCCC[C@H]3C(=O)O[C@H](/C(C)=C/[C@@H]3CC[C@@H](O)[C@H](OC)C3)[C@H](C)[C@@H](O)CC1=O)[C@H](C)C[C@@H]2OC` [FK506]?
Answer: cAMP accumulation evoked by forskolin (AtT20 cells [5]; 10 or 30 μM forskolin): no significant effect; EC50 (AtT20 cells [1]; Mus musculus, AtT20, read-out: apparent EC50 to augment cAMP accumulation induced by CRF): ~10 nM; CRF-induced cAMP formation (AtT20 cells [1]; extracellular free Ca2+ 0 mmol/l, 0.5 mmol/l IBMX): 10.3 ± 0.10 pmol/well; CRF-induced cAMP formation (AtT20 cells [1]; extracellular free Ca2+ 0.5 mmol/l, 0.5 mmol/l IBMX): 10.0 ± 0.11 pmol/well; CRF-induced cAMP formation (AtT20 cells [1]; extracellular free Ca2+ 1.0 mmol/l, 0.5 mmol/l IBMX): 10.4 ± 0.10 pmol/well; CRF-induced cAMP formation (AtT20 cells [1]; extracellular free Ca2+ 1.5 mmol/l, 0.5 mmol/l IBMX): 11.3 ± 0.13 pmol/well; CRF-induced cAMP formation (AtT20 cells [1]; extracellular free Ca2+ 2.0 mmol/l, 0.5 mmol/l IBMX): 9.5 ± 0.11 pmol/well; cAMP accumulation (AtT20 cells [4]; [7]): 3.3 ± 0.7; cAMP accumulation (AtT20 cells [4]; [8]): 15.3 ± 2.5; cAMP accumulation (AtT20 cells [4]; [9]): 45.3 ± 9; unstimulated cAMP levels [6]: 3 fold; EC50 (AtT20 cells [2]; Mus musculus, AtT20, read-out: apparent EC50 to stimulate ACTH release): ~10 nM

Question: `C/C=C/C[C@@H](C)[C@@H](O)C1C(=O)N[C@@H](CC)C(=O)N(C)CC(=O)N(C)[C@@H](C(C)C)C(=O)N[C@@H](C(C)C)C(=O)N(C)[C@@H](CC(C)C)C(=O)N[C@@H](C)C(=O)N[C@H](C)C(=O)N(C)[C@@H](CC(C)C)C(=O)N(C)[C@@H](CC(C)C)C(=O)N(C)[C@@H](C(C)C)C(=O)N1C` (some centres unmarked) [MeVal^4-cyclosporin A] (cyclo(A[dA][NMeL][NMeL][NMeV][ξNMeBmt][Abu][Sar][NMeV]V[NMeL])) was tested. Which “CRF-induced cAMP production” value (AtT20 cells [1]; 10 nmol/l CRF, 0.5 mmol/l IBMX, drug preincubated 30 minutes) did it give?
Answer: Its value is “enhanced CRF-induced cAMP production in a concentration dependent manner”.

Question: How did the “enhancement of forskolin-evoked cAMP accumulation” value (AtT20 cells [5]; cells loaded with BAPTA-AM) turn out when `CC(=O)OCOC(=O)CN(CC(=O)OCOC(C)=O)c1ccccc1OCCOc1ccccc1N(CC(=O)OCOC(C)=O)CC(=O)OCOC(C)=O` [BAPTA-AM, [1,2-bis-(o-Aninophenoxy)-ethane-N,N,N′,N′-tetraacetic acid tetra-(acetoxymethyl)-ester]] was run?
Answer: The value was 15%.

Question: What about the “cAMP response to CRF after lowering intracellular free Ca2+” value (AtT20 cells [1]) of the same molecule?
Answer: Its value is “markedly increased the cAMP response to CRF”.

Question: And the “isoproterenol induced cAMP formation” value (AtT20 cells [4])?
Answer: Its value is “enhanced”.

Question: What about the cAMP accumulation (AtT20 cells [4]; isoproterenol 0.4 nmol/l, pretreatment FK506 1 μmol/l or BAPTA/AM 20 μmol/l, IBMX 0.5 mmol/l, rolipram 0.1 mmol/l) of the same molecule?
Answer: The cAMP accumulation was 0.96 ± 0.06.

Question: What about the cAMP accumulation (AtT20 cells [4]; [7]) of the same molecule?
Answer: The cAMP accumulation was 3.6 ± 0.6.

Question: What about the cAMP accumulation (AtT20 cells [4]; [8]) of the same molecule?
Answer: The cAMP accumulation was 11.4 ± 0.9.

Question: What about the cAMP accumulation (AtT20 cells [4]; isoproterenol 100 nmol/l, pretreatment FK506 1 μmol/l or BAPTA/AM 20 μmol/l, IBMX 0.5 mmol/l, rolipram 0.1 mmol/l) of the same molecule?
Answer: Its cAMP accumulation is 35.5 ± 3.4.

Question: What about the cAMP accumulation (AtT20 cells [4]; [9]) of the same molecule?
Answer: The cAMP accumulation was 46.9 ± 9.

Question: With `O=C(O)CN(CCOCCOCCN(CC(=O)O)CC(=O)O)CC(=O)O` [EGTA] as the molecule, how does the “cAMP response to CRF after lowering intracellular free Ca2+” value (AtT20 cells [1]) read?
Answer: The value was “markedly increased the cAMP response to CRF”.

Question: Which “cAMP response to CRF after lowering intracellular free Ca2+” value (AtT20 cells [1]) does the source give for `CNc1ccc2oc(C[C@H]3O[C@@]4(CC[C@H]3C)O[C@H]([C@H](C)C(=O)c3ccc[nH]3)[C@H](C)C[C@H]4C)nc2c1C(=O)O` [A23187] here?
Answer: The value was “markedly increased the cAMP response to CRF”.

Reference: patent US20020142436A1, “Human adenylate cyclase and use therefor” (priority 1995, published 2002)
